Laboratory results published in ChEMBL document CHEMBL3885861, “Open TG-GATES”.

Organism: Rattus norvegicus
Assay: Open TG-GATES - Regimen: Daily Repeat
Assay type: toxicity, organism-based, Sprague-Dawley
Set-up: regimen Daily Repeat, gender Male, age 6 weeks
Settings: in vivo, po, 0 mg/kg, route gavage, dose level Control; for APTT / Bas / Eos / Fbg / Hb / Ht / Lym / MCHC / MCV / Mono / Neu / PT / Plat / RBC / Ret / WBC: tissue Blood; for KIDNEY_L / KIDNEY_R / KIDNEY_TOTAL: tissue Kidney; for LIVER: tissue Liver; for ALP / ALT / AST / BUN / CRE / Ca / Cl / DBIL / GLC / IP / K / LDH / Na / PL / RALB / TBIL / TC / TG / TP / gamma-GTP: tissue Plasma

CS(=O)(=O)Nc1ccc([N+](=O)[O-])cc1Oc1ccccc1 [NIMESULIDE]
TERMINAL_BW (72 h, time 3 day): 220.1 g
APTT (72 h, time 3 day): 17.3 s
Bas (72 h, time 3 day): 0%
Eos (72 h, time 3 day): 1%
Fbg (72 h, time 3 day): 199.4 mg/dL
Hb (72 h, time 3 day): 13.5 g/dL
Ht (72 h, time 3 day): 39.9%
Lym (72 h, time 3 day): 78%
MCHC (72 h, time 3 day): 34%
MCV (72 h, time 3 day): 62.8 fL
Mono (72 h, time 3 day): 6.2%
Neu (72 h, time 3 day): 14.8%
PT (72 h, time 3 day): 11.7 s
Plat (72 h, time 3 day): 127.5 x10_4/uL
RBC (72 h, time 3 day): 635.6 x10_4/ul
Ret (72 h, time 3 day): 9.2%
WBC (72 h, time 3 day): 97.8 x10_2/uL
KIDNEY_L (72 h, time 3 day): 1 g
KIDNEY_R (72 h, time 3 day): 1 g
KIDNEY_TOTAL (72 h, time 3 day): 2 g
LIVER (72 h, time 3 day): 10.6 g
ALP (72 h, time 3 day): 996 IU/L
ALT (72 h, time 3 day): 36.8 IU/L
AST (72 h, time 3 day): 63.6 IU/L
BUN (72 h, time 3 day): 17.6 mg/dL
CRE (72 h, time 3 day): 0.6 mg/dL
Ca (72 h, time 3 day): 10.7 mg/dL
Cl (72 h, time 3 day): 105 meq/L
DBIL (72 h, time 3 day): 0.064 mg/dL
GLC (72 h, time 3 day): 203 mg/dL
IP (72 h, time 3 day): 7.5 mg/dL
K (72 h, time 3 day): 4.7 meq/L
LDH (72 h, time 3 day): 81.6 IU/L
Na (72 h, time 3 day): 139.4 meq/L
PL (72 h, time 3 day): 132.2 mg/dL
RALB (72 h, time 3 day): 4 g/dL
TBIL (72 h, time 3 day): 0.3 mg/dL
TC (72 h, time 3 day): 69 mg/dL
TG (72 h, time 3 day): 72.4 mg/dL
TP (72 h, time 3 day): 5.5 g/dL
gamma-GTP (72 h, time 3 day): 1.4 IU/L
TERMINAL_BW ([…], time 7 day): 249.3 g
TERMINAL_BW ([…], time 14 day): 309.7 g
TERMINAL_BW ([…], time 28 day): 405 g
APTT ([…], time 7 day): 18.3 s
Bas ([…], time 7 day): 0%
Eos ([…], time 7 day): 1%
Fbg ([…], time 7 day): 220 mg/dL
Hb ([…], time 7 day): 14.2 g/dL
Ht ([…], time 7 day): 41.6%
Lym ([…], time 7 day): 77.2%
MCHC ([…], time 7 day): 34.1%
MCV ([…], time 7 day): 64.8 fL
Mono ([…], time 7 day): 9.4%
Neu ([…], time 7 day): 12.6%
PT ([…], time 7 day): 11.3 s
Plat ([…], time 7 day): 117.6 x10_4/uL
RBC ([…], time 7 day): 642.4 x10_4/ul
Ret ([…], time 7 day): 7.2%
WBC ([…], time 7 day): 134.4 x10_2/uL
APTT ([…], time 14 day): 17.4 s
Bas ([…], time 14 day): 0%
Eos ([…], time 14 day): 1.2%
Fbg ([…], time 14 day): 234.2 mg/dL
Hb ([…], time 14 day): 14.7 g/dL
Ht ([…], time 14 day): 43.2%
Lym ([…], time 14 day): 79%
MCHC ([…], time 14 day): 34%
MCV ([…], time 14 day): 62.7 fL
Mono ([…], time 14 day): 6.2%
Neu ([…], time 14 day): 13.8%
PT ([…], time 14 day): 11.8 s
Plat ([…], time 14 day): 118.2 x10_4/uL
RBC ([…], time 14 day): 689.8 x10_4/ul
Ret ([…], time 14 day): 6.7%
WBC ([…], time 14 day): 118 x10_2/uL
APTT ([…], time 28 day): 17.4 s
Bas ([…], time 28 day): 0%
Eos ([…], time 28 day): 1.4%
Fbg ([…], time 28 day): 213.8 mg/dL
Hb ([…], time 28 day): 15.1 g/dL
Ht ([…], time 28 day): 44.6%
Lym ([…], time 28 day): 80.6%
MCHC ([…], time 28 day): 33.9%
MCV ([…], time 28 day): 58.6 fL
Mono ([…], time 28 day): 5.8%
Neu ([…], time 28 day): 12.4%
PT ([…], time 28 day): 11.7 s
Plat ([…], time 28 day): 126.5 x10_4/uL
RBC ([…], time 28 day): 761 x10_4/ul
Ret ([…], time 28 day): 2.7%
WBC ([…], time 28 day): 120.2 x10_2/uL
KIDNEY_L ([…], time 7 day): 1.1 g
KIDNEY_R ([…], time 7 day): 1.1 g
KIDNEY_TOTAL ([…], time 7 day): 2.2 g
KIDNEY_L ([…], time 14 day): 1.4 g
KIDNEY_R ([…], time 14 day): 1.3 g
KIDNEY_TOTAL ([…], time 14 day): 2.7 g
KIDNEY_L ([…], time 28 day): 1.4 g
KIDNEY_R ([…], time 28 day): 1.4 g
KIDNEY_TOTAL ([…], time 28 day): 2.8 g
LIVER ([…], time 7 day): 11.6 g
LIVER ([…], time 14 day): 14.5 g
LIVER ([…], time 28 day): 16.5 g
ALP ([…], time 7 day): 876.4 IU/L
ALT ([…], time 7 day): 35.4 IU/L
AST ([…], time 7 day): 64.2 IU/L
BUN ([…], time 7 day): 19.2 mg/dL
CRE ([…], time 7 day): 0.6 mg/dL
Ca ([…], time 7 day): 10.5 mg/dL
Cl ([…], time 7 day): 105.2 meq/L
DBIL ([…], time 7 day): 0.03 mg/dL
GLC ([…], time 7 day): 197.4 mg/dL
IP ([…], time 7 day): 7 mg/dL
K ([…], time 7 day): 5 meq/L
LDH ([…], time 7 day): 91.8 IU/L
Na ([…], time 7 day): 140.4 meq/L
PL ([…], time 7 day): 153.8 mg/dL
RALB ([…], time 7 day): 4 g/dL
TBIL ([…], time 7 day): 0.3 mg/dL
TC ([…], time 7 day): 79.2 mg/dL
TG ([…], time 7 day): 108.6 mg/dL
TP ([…], time 7 day): 5.7 g/dL
gamma-GTP ([…], time 7 day): 1.4 IU/L
ALP ([…], time 14 day): 898.6 IU/L
ALT ([…], time 14 day): 28.4 IU/L
AST ([…], time 14 day): 60 IU/L
BUN ([…], time 14 day): 17.4 mg/dL
CRE ([…], time 14 day): 0.5 mg/dL
Ca ([…], time 14 day): 10.7 mg/dL
Cl ([…], time 14 day): 106.4 meq/L
DBIL ([…], time 14 day): 0.002 mg/dL
GLC ([…], time 14 day): 199.4 mg/dL
IP ([…], time 14 day): 7.2 mg/dL
K ([…], time 14 day): 4.7 meq/L
LDH ([…], time 14 day): 54 IU/L
Na ([…], time 14 day): 140.6 meq/L
PL ([…], time 14 day): 141 mg/dL
RALB ([…], time 14 day): 4 g/dL
TBIL ([…], time 14 day): 0.3 mg/dL
TC ([…], time 14 day): 65.4 mg/dL
TG ([…], time 14 day): 124.4 mg/dL
TP ([…], time 14 day): 5.9 g/dL
gamma-GTP ([…], time 14 day): 1 IU/L
ALP ([…], time 28 day): 627.4 IU/L
ALT ([…], time 28 day): 29 IU/L
AST ([…], time 28 day): 61.8 IU/L
BUN ([…], time 28 day): 20.2 mg/dL
CRE ([…], time 28 day): 0.6 mg/dL
Ca ([…], time 28 day): 10.5 mg/dL
Cl ([…], time 28 day): 108.2 meq/L
DBIL ([…], time 28 day): 0.006 mg/dL
GLC ([…], time 28 day): 200 mg/dL
IP ([…], time 28 day): 6.6 mg/dL
K ([…], time 28 day): 4.7 meq/L
LDH ([…], time 28 day): 78 IU/L
Na ([…], time 28 day): 143.8 meq/L
PL ([…], time 28 day): 152 mg/dL
RALB ([…], time 28 day): 4.1 g/dL
TBIL ([…], time 28 day): 0.3 mg/dL
TC ([…], time 28 day): 73.2 mg/dL
TG ([…], time 28 day): 160.4 mg/dL
TP ([…], time 28 day): 6 g/dL
gamma-GTP ([…], time 28 day): 1.8 IU/L
